{"source": "patent US10576086B2", "about": "“Triazine derivatives as interferon-gamma inhibitors” (University of Greenwich, priority 2015, dated 2020)", "test_system": "IFN-γ production in human peripheral blood mononuclear cells (PBMCs)", "assay": "Experiment 2: IFN-γ production by PHA-stimulated human PBMCs, ELISA", "type": "cell-based", "conditions": "for [IFN-γ]: PHA 5 μg/ml; for inhibition of IFN-γ production in PBMCs (in words): Experiment 2, human PBMCs; for IC50: human PBMCs, PHA-stimulated, read-out: IC50 (concentration to inhibit IFN-γ production by 50%)", "procedure": "A similar set of tests were carried out, in which three compounds known as CEN-079(3,5-diamino-6-[2-(3,4,5-trichlorothienyl)]-1,2,4-triazine), CEN-092(3,5-diamino-6-(3,5-bistrifluoromethylphenyl)-1,2,4-triazine) and CEN-216(3,5-diamino-6-(2,3-dichlorophenyl)-2,3(2,5)-dihydro-3(5)-imino-2-(2,2,2-trichloroethyl)-1,2,4-triazine) were compared with lamotrigine. CEN-079, CEN-092 and CEN-216 are within the scope of Formulae 1, 2 and 3.\n50 ml of blood from three healthy adult donors was collected by venepuncture in heparinised tubes. The blood samples where centrifuged at 3000 rpm for 15 minutes. The supernatant plasma was collected in a centrifuge tube, and centrifuged at 3000 rpm for a further 10 minutes. The supernatant was then collected in a plain tube, and stored at −70° C. for future use.\nThe cells from the first centrifuged heparinised tube were diluted 1:1 in RPMI-1640, and mixed by multiple inversions. The cell mixture was then slowly layered, using a sterile plastic 3 ml pipette, along a tube wall containing lymphoprep (Nycomed) at a ratio of 2:1 cells/RPMI-1640:Lymphoprep in a 25 ml universal tube. The mixture was centrifuged at 2400 rpm for 30 minutes, and left to stand for 20 minutes. PBMCs were slowly removed from the interface using a sterile plastic pipette, and collected in a 15 ml centrifuge tube.\nThe cells were washed twice by diluting in RPMI-1640 with 2 mM L-glutamine, 100 U/ml penicillin and 100 μg/ml streptomycin at a ratio of 1:1. The mixture was centrifuged at 3000 rpm for 15 minutes, and the supernatant decanted. PBMCs were then diluted in RPMI-1640 containing 2 mM L-glutamine, 100 U/ml penicillin and 100 μg streptomycin, to make up a volume of 6 ml for subjects 1 and 2, and 9 ml for subject 3.\nCells were counted using an Improved Neubauer haemocytometer (Hawksley, UK) on a light microscope. 10 μl of cell suspension was loaded onto the haemocytometer using a sterile plastic pipette. Cells were counted in five out of 25 1 mm squares, from which the total cell count was calculated.\n5 μg/ml PHA was used as a T cell activating agent for the production of IFN-γ. The PBMCs were treated with the four test compounds (lamotrigine, CEN-079, CEN-092, CEN-216) at concentrations of 10 μM, 30 μM and 300 μM to assess their effects on IFN-γ production by the stimulated T cells.\nThe tests were carried out as for Experiment 1, in which 2×10^6 PBMC/ml, 25 μl of 5% autologous plasma, and 2.63 μl of 5 μg/ml PHA were used. Test compound at each concentration was then added, except for one control case.\n10 μM solutions were obtained by adding 1.05 μl of a 5 mM solution of the compounds to the above PBMC-containing solution. 30 μM solutions were obtained by adding 3.15 μl of the 5 mM solution of the compounds. 300 μM solutions were obtained by adding […] solutions of the compounds.\nThe tubes were covered, gently shaken to mix the contents, and incubated for 24 hours at 37° C. The tubes were then centrifuged at 2500 rpm for 10 minutes. The supernatant was collected in a 3 ml plastic pipette, and aliquots were stored at −70° C. before being analysed.\nThe test was performed according to the supplier's instructions. Donor samples were diluted 1:1 in phosphate buffered […] (PBS) and assayed simultaneously with IFN-γ standard samples, in duplicate. The standard curve ranged from 15.6 pg/ml to 1000 pg/ml.\nA 96-well multiwell microplate (high binding Costar) was prepared, by diluting a capture antibody (720 μg/ml of mouse anti-human IFN-γ) in PBS to a working concentration of 4.0 μg/ml. 100 μl was immediately coated on each well, and left overnight at room temperature. The wells were washed three times in wash buffer, using microplate autowasher (LT-3000, LabTech International Ltd). The remainder of the wash buffer in the wells was removed by blotting on to clean paper towels. The plate was blocked by adding 300 μl Block buffer (1% BSA in PBS) to each well and incubated at room temperature for 1 hour. […]", "note": "Where two headings read alike, the source gives them in different places.", "data": [{"smiles": "Nc1nnc(-c2sc(Cl)c(Cl)c2Cl)c(N)n1", "note": "[CEN-079, 3,5-diamino-6-[2-(3,4,5-trichlorothienyl)]-1,2,4-triazine]", "values": [{"measurement": "[IFN-γ] vs control", "setting": "10 μM, Subject 1, 24 h", "result": 22.1, "unit": "%"}, {"measurement": "[IFN-γ]", "setting": "10 μM, Subject 1, 24 h", "result": 154.5, "unit": "pg/mL"}, {"measurement": "[IFN-γ] vs control", "setting": "10 μM, Subject 2, 24 h", "result": 36.9, "unit": "%"}, {"measurement": "[IFN-γ]", "setting": "10 μM, Subject 2, 24 h", "result": 757.5, "unit": "pg/mL"}, {"measurement": "[IFN-γ] vs control", "setting": "10 μM, Subject 3, 24 h", "result": 28.7, "unit": "%"}, {"measurement": "[IFN-γ]", "setting": "10 μM, Subject 3, 24 h", "result": 611.5, "unit": "pg/mL"}, {"measurement": "[IFN-γ] vs control", "setting": "30 μM, Subject 1, 24 h", "result": 7.60, "unit": "%"}, {"measurement": "[IFN-γ]", "setting": "30 μM, Subject 1, 24 h", "result": 53, "unit": "pg/mL"}, {"measurement": "[IFN-γ] vs control", "setting": "30 μM, Subject 2, 24 h", "result": 1.80, "unit": "%"}, {"measurement": "[IFN-γ]", "setting": "30 μM, Subject 2, 24 h", "result": 178.5, "unit": "pg/mL"}, {"measurement": "[IFN-γ] vs control", "setting": "30 μM, Subject 3, 24 h", "result": 2.0, "unit": "%"}, {"measurement": "[IFN-γ]", "setting": "30 μM, Subject 3, 24 h", "result": 41.5, "unit": "pg/mL"}, {"measurement": "[IFN-γ] vs control", "setting": "300 μM, Subject 1, 24 h", "result": 0.0, "unit": "%"}, {"measurement": "[IFN-γ]", "setting": "300 μM, Subject 1, 24 h", "result": 0.00, "unit": "pg/mL"}, {"measurement": "[IFN-γ] vs control", "setting": "300 μM, Subject 2, 24 h", "result": 0.0, "unit": "%"}, {"measurement": "[IFN-γ]", "setting": "300 μM, Subject 2, 24 h", "result": 0.0, "unit": "pg/mL"}, {"measurement": "[IFN-γ] vs control", "setting": "300 μM, Subject 3, 24 h", "result": 0.0, "unit": "%"}, {"measurement": "[IFN-γ]", "setting": "300 μM, Subject 3, 24 h", "result": 0.0, "unit": "pg/mL"}, {"measurement": "inhibition of IFN-γ production in PBMCs (in words)", "result": "significantly more effective inhibitors compared to lamotrigine"}, {"measurement": "IC50", "result": 6, "unit": "µM"}]}, {"smiles": "Nc1nnc(-c2cc(C(F)(F)F)cc(C(F)(F)F)c2)c(N)n1", "note": "[CEN-092, 3,5-diamino-6-(3,5-bistrifluoromethylphenyl)-1,2,4-triazine]", "values": [{"measurement": "[IFN-γ] vs control", "setting": "10 μM, Subject 1, 24 h", "result": 16.1, "unit": "%"}, {"measurement": "[IFN-γ]", "setting": "10 μM, Subject 1, 24 h", "result": 112.5, "unit": "pg/mL"}, {"measurement": "[IFN-γ] vs control", "setting": "10 μM, Subject 2, 24 h", "result": 36.0, "unit": "%"}, {"measurement": "[IFN-γ]", "setting": "10 μM, Subject 2, 24 h", "result": 728.5, "unit": "pg/mL"}, {"measurement": "[IFN-γ] vs control", "setting": "10 μM, Subject 3, 24 h", "result": 19.9, "unit": "%"}, {"measurement": "[IFN-γ]", "setting": "10 μM, Subject 3, 24 h", "result": 423.5, "unit": "pg/mL"}, {"measurement": "[IFN-γ] vs control", "setting": "30 μM, Subject 1, 24 h", "result": 7.4, "unit": "%"}, {"measurement": "[IFN-γ]", "setting": "30 μM, Subject 1, 24 h", "result": 52.0, "unit": "pg/mL"}, {"measurement": "[IFN-γ] vs control", "setting": "30 μM, Subject 2, 24 h", "result": 24.6, "unit": "%"}, {"measurement": "[IFN-γ]", "setting": "30 μM, Subject 2, 24 h", "result": 499.0, "unit": "pg/mL"}, {"measurement": "[IFN-γ] vs control", "setting": "30 μM, Subject 3, 24 h", "result": 4.3, "unit": "%"}, {"measurement": "[IFN-γ]", "setting": "30 μM, Subject 3, 24 h", "result": 91.5, "unit": "pg/mL"}, {"measurement": "[IFN-γ] vs control", "setting": "300 μM, Subject 1, 24 h", "result": 0.0, "unit": "%"}, {"measurement": "[IFN-γ]", "setting": "300 μM, Subject 1, 24 h", "result": 0.00, "unit": "pg/mL"}, {"measurement": "[IFN-γ] vs control", "setting": "300 μM, Subject 2, 24 h", "result": 0.0, "unit": "%"}, {"measurement": "[IFN-γ]", "setting": "300 μM, Subject 2, 24 h", "result": 0.0, "unit": "pg/mL"}, {"measurement": "[IFN-γ] vs control", "setting": "300 μM, Subject 3, 24 h", "result": 6.9, "unit": "%"}, {"measurement": "[IFN-γ]", "setting": "300 μM, Subject 3, 24 h", "result": 146.0, "unit": "pg/mL"}, {"measurement": "inhibition of IFN-γ production in PBMCs (in words)", "result": "significantly more effective inhibitors compared to lamotrigine"}, {"measurement": "IC50", "setting": "PBMC", "result": 3, "unit": "µM"}]}, {"smiles": "N=c1nc(N)c(-c2cccc(Cl)c2Cl)nn1CC(Cl)(Cl)Cl", "note": "[CEN-216, 5(3)-Amino-6-(2,3-dichlorophenyl)-2,3(2,5)-dihydro-3(5)-imino-2-(2,2,2-trichloroethyl)-1,2,4-triazine]", "values": [{"measurement": "[IFN-γ] vs control", "setting": "10 μM, Subject 1, 24 h", "result": 0.0, "unit": "%"}, {"measurement": "[IFN-γ]", "setting": "10 μM, Subject 1, 24 h", "result": 0.00, "unit": "pg/mL"}, {"measurement": "[IFN-γ] vs control", "setting": "10 μM, Subject 2, 24 h", "result": 9.2, "unit": "%"}, {"measurement": "[IFN-γ]", "setting": "10 μM, Subject 2, 24 h", "result": 187.0, "unit": "pg/mL"}, {"measurement": "[IFN-γ] vs control", "setting": "10 μM, Subject 3, 24 h", "result": 3.9, "unit": "%"}, {"measurement": "[IFN-γ]", "setting": "10 μM, Subject 3, 24 h", "result": 82.0, "unit": "pg/mL"}, {"measurement": "[IFN-γ] vs control", "setting": "30 μM, Subject 1, 24 h", "result": 0.0, "unit": "%"}, {"measurement": "[IFN-γ]", "setting": "30 μM, Subject 1, 24 h", "result": 0.00, "unit": "pg/mL"}, {"measurement": "[IFN-γ] vs control", "setting": "30 μM, Subject 2, 24 h", "result": 2.9, "unit": "%"}, {"measurement": "[IFN-γ]", "setting": "30 μM, Subject 2, 24 h", "result": 59.0, "unit": "pg/mL"}, {"measurement": "[IFN-γ] vs control", "setting": "30 μM, Subject 3, 24 h", "result": 5.7, "unit": "%"}, {"measurement": "[IFN-γ]", "setting": "30 μM, Subject 3, 24 h", "result": 122.0, "unit": "pg/mL"}, {"measurement": "[IFN-γ] vs control", "setting": "300 μM, Subject 1, 24 h", "result": 0.0, "unit": "%"}, {"measurement": "[IFN-γ]", "setting": "300 μM, Subject 1, 24 h", "result": 0.00, "unit": "pg/mL"}, {"measurement": "[IFN-γ] vs control", "setting": "300 μM, Subject 2, 24 h", "result": 0.0, "unit": "%"}, {"measurement": "[IFN-γ]", "setting": "300 μM, Subject 2, 24 h", "result": 0.0, "unit": "pg/mL"}, {"measurement": "[IFN-γ] vs control", "setting": "300 μM, Subject 3, 24 h", "result": 0.0, "unit": "%"}, {"measurement": "[IFN-γ]", "setting": "300 μM, Subject 3, 24 h", "result": 0.0, "unit": "pg/mL"}, {"measurement": "inhibition of IFN-γ production in PBMCs (in words)", "result": "significantly more effective inhibitors compared to lamotrigine"}]}]}
